For 16 compounds, IC50 results are on record in patent US20170157135A1 (Novogen Limited, priority 2013, published 2017).

Holding throughout (assay type): cell-based
The test system of assay [1] is SKMEL28 melanoma (SK-MeI-28) cells. Kind of assay: Cell viability assay (MTT), SKMEL28. The following applies: Homo sapiens, SK-MEL-28, 48 hr treatment. As for the experimental part:
(§1) Cell viability assays were also conducted to assess the anti-proliferative effects of the anti-tropomyosin compounds. Briefly, cells (1×10^3/well) were plated (96-well) and treated (48 hr) with anti-tropomyosin drug and viability measured using 3-(4,5-dimethylthiazol-2-yl)-2,5-diphenylterazolium bromide MTT. Cell viability was normalized to control (vehicle alone) and dose-response curves, and half maximal effective concentration (EC50) values were determined using Graph Pad Prism 5 (nonlinear regression sigmoidal dose-response variable slope).

Assay [2] relates to SHEP neuroblastoma (SH-EP) cells. Kind of assay: Cell viability assay (MTT), SHEP. The following applies: 48 hr treatment. As to the method:
as §1

For assay [3], the system named is SK-N-SH neuroblastoma cells. Description: Anti-proliferative assay (cell-titre luminescent), SK-N-SH. The following applies: Homo sapiens, 72 hours, luminescence. The procedure, abridged: (§2)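 Proliferation inhibition is measured by cell-titre luminescence after a 72 h treatment of pre-attached cells with compound at 30, 10, 3, 1, 0.3 and 0.1 μM. Vehicle-normalized curves give EC50 values.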

A further assay relates to SK-Mel-28 melanoma cells. Description: Anti-proliferative assay (cell-titre luminescent), SK-Mel-28. Conditions: Homo sapiens; SK-Mel-28, 72 hours, luminescence. The procedure, abridged: as §2
In assay [4] the test system is DU145 prostate cancer cells. Description: Anti-proliferative assay (cell-titre luminescent), DU145. Conditions: Homo sapiens, DU-145; DU145, 72 hours, luminescence. The procedure, abridged:
as §2

The subject of assay [5] is PC3 prostate cancer cells. Description: Anti-proliferative assay (cell-titre luminescent), PC3. Conditions: PC3, 72 hours, luminescence. The procedure, abridged:
as §2

Assay [6] relates to CaCo2 colorectal cancer cells. Kind of assay: Anti-proliferative assay (cell-titre luminescent), CaCo2. Conditions: Homo sapiens, Caco-2; CaCo2, 72 hours, luminescence. The procedure, abridged:
as §2

The next assay relates to A549 lung (NSLC) cells. Kind of assay: Anti-proliferative assay (cell-titre luminescent), A549. The following applies: Homo sapiens; A549, 72 hours, luminescence. The procedure, abridged:
as §2

Assay [7] has as its system MDA-MB-231 breast cancer cells. Kind of assay: Anti-proliferative assay (cell-titre luminescent), MDA-MB-231. Conditions: Homo sapiens; MDA-MB-231, 72 hours, luminescence. The procedure, abridged:
as §2

SMILES strings stand for the structures.

Usually IC50 stands for the point on the concentration scale where inhibition reaches its midpoint. In the case of `Cc1c(/C=C/C(=O)NCCc2ccccc2)c2ccccc2n1CCCN(C)C` [Compound 2011, (E)-3-(1-(3-(dimethylamino)propyl)-2-methyl-1H-indol-3-yl)-N-phenethylacrylamide], the IC50 in assay [1] was found to be 12.1 µM; in assay [2] it was 13.2 µM.
With `CCN(CC)CCCn1c(C)c(C(=O)N2CCN(CCc3ccc4c(c3)OCO4)CC2)c2cc(OC)ccc21` [Compound 2052, (4-(2-(benzo[d][1,3]dioxol-5-yl)ethyl)piperazin-1-yl)(1-(3-(diethylamino)propyl)-5-methoxy-2-methyl-1H-indol-3-yl)methanone], the half-inhibitory concentration (IC50) in [3] is 10.9 µM; in the assay with SK-Mel-28 melanoma cells, 5.7 µM; in [4], 9.2 µM; in [5], 10.9 µM; in assay [6], 16 µM; in the assay on A549 lung (NSLC) cells it was 11.8 µM. In [7], this compound displayed an IC50 of 12.7 µM.
Regarding `CCN(CC)CCCn1c(C)c(/C=C/C(=O)N2CCN(CCc3ccccc3)CC2)c2cc(OC)ccc21` [Compound 2028, (E)-3-(1-(3-(diethylamino)propyl)-5-methoxy-2-methyl-1H-indol-3-yl)-1-(4-phenethylpiperazin-1-yl)prop-2-en-1-one], the IC50 amounted to 2.7 µM in [3]; 2 µM with SK-Mel-28 melanoma cells; 5.3 µM in assay [4]; 5.3 µM in assay [5]; 4.1 µM in [6]; 4.2 µM with A549 lung (NSLC) cells. 5.2 µM corresponded to half-maximal inhibition in assay [7] (IC50).
For the compound `Cc1c(C(=O)N2CCN(CCc3ccc(F)cc3)CC2)c2ccccc2n1CCCN(C)C` [Compound 2038, (1-(3-(dimethylamino)propyl)-2-methyl-1H-indol-3-yl)(4-(4-fluorophenethyl)piperazin-1-yl)methanone], the IC50 (in [3]; with SK-Mel-28 melanoma cells; in assay [4]; in assay [5]; in assay [6]; with A549 lung (NSLC) cells) was > 30 µM throughout. The IC50 in assay [7] is > 30 µM.
As for `CCN(CC)CCCn1c(C)c(/C=C/C(=O)N2CCN(CCc3ccc(F)cc3)CC2)c2cc(OC)ccc21` [Compound 2023, (E)-3-(1-(3-(diethylamino)propyl)-5-methoxy-2-methyl-1H-indol-3-yl)-1-(4-(4-fluorophenethyl)piperazin-1-yl)prop-2-en-1-one], the IC50 turned out to be 3.6 µM in assay [3]; 2.7 µM with SK-Mel-28 melanoma cells; 4.4 µM in assay [4]; 5.6 µM in [5]; 10.3 µM in assay [6]; 5.2 µM in the assay on A549 lung (NSLC) cells. Moreover, the midpoint of inhibition in [7], the IC50, lay at 4.6 µM.
As to `CCOc1ccc2c(c1)c(/C=C/C(=O)N1CCN(CCc3ccc(F)cc3)CC1)c(C)n2CCCN(C)C` [Compound 2035, (E)-3-(1-(3-(dimethylamino)propyl)-5-ethoxy-2-methyl-1H-indol-3-yl)-1-(4-(4-fluorophenethyl)piperazin-1-yl)prop-2-en-1-one], the IC50 was 3.3 µM in assay [3]; 3.2 µM in the assay with SK-Mel-28 melanoma cells; 6.2 µM in [4]; 5.6 µM in assay [5]; 5.1 µM in assay [6]; 8.3 µM with A549 lung (NSLC) cells. In assay [7], this compound yielded an IC50 of 3 µM.
Take `COc1ccc2c(c1)c(C(=O)N1CCN(CCc3ccc(F)cc3)CC1)c(C)n2CCCN1CCN(C)CC1` [Compound 2056, (4-(4-fluorophenethyl)piperazin-1-yl)(5-methoxy-2-methyl-1-(3-(4-methylpiperazin-1-yl)propyl)-1H-indol-3-yl)methanone]: the IC50 in assay [3] amounted to 11.2 µM; in the assay on SK-Mel-28 melanoma cells it was 4.8 µM; in assay [4] it was 18.9 µM; in [5], 10.8 µM; in assay [6], 10.1 µM; in the assay with A549 lung (NSLC) cells it was 14.7 µM. Further, the 50% inhibitory concentration (IC50) in assay [7] was 13.9 µM.
With `COc1cccc(CCN2CCN(C(=O)/C=C/c3c(C)n(CCCN(C)C)c4ccc(OC)cc34)CC2)c1` [Compound 2022, (E)-3-(1-(3-(dimethylamino)propyl)-5-methoxy-2-methyl-1H-indol-3-yl)-1-(4-(3-methoxyphenethyl)piperazin-1-yl)prop-2-en-1-one], the IC50 in assay [3] is 12.5 µM; in the assay with SK-Mel-28 melanoma cells, 17.2 µM; in assay [4], 22 µM; in [5] it was 7.6 µM; in assay [6], 21.5 µM; in the assay with A549 lung (NSLC) cells, 12.7 µM. Besides, in [7], the midpoint of inhibition, the IC50, lay at 11.3 µM.
For the compound `COc1ccc2c(c1)c(/C=C/C(=O)N1CCN(CCc3ccc(F)cc3)CC1)c(C)n2CCCN1CCN(C)CC1` [Compound 2029, (E)-1-(4-(4-fluorophenethyl)piperazin-1-yl)-3-(5-methoxy-2-methyl-1-(3-(4-methylpiperazin-1-yl)propyl)-1H-indol-3-yl)prop-2-en-1-one], the IC50 was 2.8 µM in assay [3]; 5.7 µM in the assay on SK-Mel-28 melanoma cells; 4.2 µM in assay [4]; 2.9 µM in assay [5]; 4.4 µM in [6]; 4.5 µM in the assay on A549 lung (NSLC) cells. The same compound came in with an IC50 in assay [7] of 3.3 µM.
With `CCN(CC)CCCn1c(C)c(/C=C/C(=O)N2CCN(CCc3ccc4c(c3)OCO4)CC2)c2cc(OC)ccc21` [Compound 2025, (E)-1-(4-(2-(benzo[d][1,3]dioxol-5-yl)ethyl)piperazin-1-yl)-3-(1-(3-(diethylamino)propyl)-5-methoxy-2-methyl-1H-indol-3-yl)prop-2-en-1-one], the IC50 in assay [3] worked out at 4.1 µM; in the assay with SK-Mel-28 melanoma cells, 4.1 µM; in assay [4], 15.6 µM; in assay [5], 7.6 µM; in assay [6], 16.5 µM; in the assay on A549 lung (NSLC) cells, 4.7 µM. In assay [7], this compound returned an IC50 of 30 µM.
With `CCN(CC)CCCn1c(C)c(C(=O)N2CCN(CCc3ccc(OC)cc3)CC2)c2cc(OC)ccc21` [Compound 2051, (1-(3-(diethylamino)propyl)-5-methoxy-2-methyl-1H-indol-3-yl)(4-(4-methoxyphenethyl)piperazin-1-yl)methanone], the IC50 in [3] is 10.9 µM; in the assay with SK-Mel-28 melanoma cells, 6 µM; in [4], > 30 µM; in [5], > 30 µM; in assay [6] it was > 30 µM; with A549 lung (NSLC) cells, > 30 µM. Moreover, in assay [7], half-maximal inhibition (IC50) required 10.3 µM.
As to `COc1cccc(CCN2CCN(C(=O)c3c(C)n(CCCN(C)C)c4ccc(OC)cc34)CC2)c1` [Compound 2048, (1-(3-(dimethylamino)propyl)-5-methoxy-2-methyl-1H-indol-3-yl)(4-(3-methoxyphenethyl)piperazin-1-yl)methanone], the IC50 (in [3]; with SK-Mel-28 melanoma cells; in assay [4]; in assay [5]; in assay [6]; in the assay with A549 lung (NSLC) cells) was > 30 µM throughout. The IC50 in [7] was > 30 µM.
`CCN(CC)CCCn1c(C)c(C(=O)N2CCN(CCc3ccc(F)cc3)CC2)c2cc(OC)ccc21` [Compound 2050, (1-(3-(diethylamino)propyl)-5-methoxy-2-methyl-1H-indol-3-yl)(4-(4-fluorophenethyl)piperazin-1-yl)methanone]: the half-inhibitory concentration (IC50) came to 21.4 µM in assay [3]; 5.3 µM in the assay on SK-Mel-28 melanoma cells; 15.9 µM in [4]; 26.4 µM in assay [5]; 10.4 µM in [6]; 19.8 µM in the assay on A549 lung (NSLC) cells. In assay [7], this compound came in with an IC50 of 14 µM.
In the case of `COc1cccc(CCN2CCN(C(=O)c3c(C)n(CCCN(C)C)c4ccccc34)CC2)c1` [Compound 2042, (1-(3-(dimethylamino)propyl)-2-methyl-1H-indol-3-yl)(4-(3-methoxyphenethyl)piperazin-1-yl)methanone], the IC50 (in assay [3]; in the assay on SK-Mel-28 melanoma cells; in assay [4]; in assay [5]; in [6]; with A549 lung (NSLC) cells) was > 30 µM each time. Moreover, in [7], the IC50 was > 30 µM.
Consider `Cc1c(/C=C/C(=O)N2CCN(CCc3cccc(F)c3)CC2)c2ccccc2n1CCCN(C)C` [Compound 2015, (E)-3-(1-(3-(dimethylamino)propyl)-2-methyl-1H-indol-3-yl)-1-(4-(3-fluorophenethyl)piperazin-1-yl)prop-2-en-1-one], for which the IC50 in assay [3] was found to be 8.8 µM; in the assay with SK-Mel-28 melanoma cells it was 3.9 µM; in assay [4], 39.2 µM; in assay [5], 12.4 µM; in [6], 15.9 µM; in the assay with A549 lung (NSLC) cells it was 14.1 µM. The compound also came in with an IC50 in assay [7] of 21.1 µM.
Turning to `COc1ccc(CCN2CCN(C(=O)/C=C/c3c(C)n(CCCN4CCN(C)CC4)c4ccc(OC)cc34)CC2)cc1` [Compound 2030, (E)-3-(5-methoxy-2-methyl-1-(3-(4-methylpiperazin-1-yl)propyl)-1H-indol-3-yl)-1-(4-(4-methoxyphenethyl)piperazin-1-yl)prop-2-en-1-one], the IC50 in assay [3] is 3.6 µM; in the assay on SK-Mel-28 melanoma cells, 3.4 µM; in [4], 7.9 µM; in [5], 4 µM; in [6] it was 5.4 µM; with A549 lung (NSLC) cells, 7.9 µM. Besides, the IC50 in assay [7] turned out to be 4.3 µM.
